How the values were obtained:
[1] = Half life period was reported in a culture medium (RPMI 1640 + 10% FCS); assay type: ADME
[2] = Half life period was reported in porcine liver esterase medium; assay type: ADME, Sus scrofa; conditions: pig
[3] = Half life period was reported in gastric juice, stable; No degradation observed up to 30 days; assay type: ADME, tissue-based; conditions: simulated gi fluid, 720 h
[4] = Half life period was reported in total cell extract medium; assay type: ADME
[5] = Half life period was reported in gastric juice; assay type: ADME, tissue-based
[6] = Half life period was reported in gastric juice; stable No degradation observed up to 30 days; assay type: ADME, tissue-based; conditions: simulated gi fluid, 720 h

Structure (SMILES)	half-life [1] [h]	half-life [2] [min]	T1/2 [3]	half-life [4] [min]	half-life [5] [h]	T1/2 [6]
Cc1cn([C@H]2C[C@H](OP(=S)(OC[C@H]3O[C@@H](n4cc(C)c(=O)[nH]c4=O)C[C@@H]3O)SCCSC(=O)c3ccccc3)[C@@H](CO)O2)c(=O)[nH]c1=O (some centres undefined)	46.5	5	No degradation	36	–	–
CCCCCCCCCCCCOC[C@H]1O[C@@H](n2cc(C)c(=O)[nH]c2=O)C[C@@H]1O	32	–	–	15	–	–
CC(=O)SCCSP(=S)(OC[C@H]1O[C@@H](n2cc(C)c(=O)[nH]c2=O)C[C@@H]1O)O[C@H]1C[C@H](n2cc(C)c(=O)[nH]c2=O)O[C@@H]1CO (some centres undefined)	6	< 2	–	< 5	168	–
Cc1cn([C@H]2C[C@H](OP(=S)(OC[C@H]3O[C@@H](n4cc(C)c(=O)[nH]c4=O)C[C@@H]3O)SCCSC(=O)C(C)(C)C)[C@@H](CO)O2)c(=O)[nH]c1=O (some centres undefined)	42.7	< 4	–	54	–	No degradation
